Laboratory results taken from patent US20070128217A1 (priority 2003, published 2007).

Legend:
[1] = system: antibodies in sera from SARS patients (sera 1a, 1b, 2, 6, 37, 62, London, SARS-yellow, SARS-green); format: binding, human; parameters: Binding of serum 6 to linear peptides of protein X1 of SARS-CoV Urbani / Binding of serum 37 to linear peptides of protein X1 of SARS-CoV Urbani / Binding of serum 6 to looped/cyclic peptide (PEPSCAN-ELISA) / Binding of serum 37 to looped/cyclic peptide (PEPSCAN-ELISA) / Binding of serum 37 to looped/cyclic peptides of protein X1 of SARS-CoV Urbani / Binding of serum 6 to linear peptides of protein X2 / Binding of serum 37 to linear peptides of protein X2 / Binding of serum 37 to looped/cyclic peptides of protein X2 of SARS-CoV Urbani / Binding of serum 6 to linear peptides of protein M of SARS-CoV Urbani / Binding of serum 37 to linear peptides of protein M of SARS-CoV Urbani / Binding of serum 6 to looped/cyclic peptides of protein M of SARS-CoV Urbani / Binding of serum 37 to looped/cyclic peptides of protein M of SARS-CoV Urbani / Binding of serum 6 to linear peptides of protein X3 of SARS-CoV Urbani / Binding of serum 37 to linear peptides of protein X3 of SARS-CoV Urbani / Binding of serum 37 to looped/cyclic peptides of protein X3 of SARS-CoV Urbani / Binding of serum 6 to linear peptides of protein X4 of SARS-CoV Urbani / Binding of serum 37 to linear peptides of protein X4 of SARS-CoV Urbani / Binding of serum 37 to looped/cyclic peptides of protein X4 of SARS-CoV Urbani / Binding of serum 6 to linear peptides of protein X5 of SARS-CoV Urbani / Binding of serum 37 to linear peptides of protein X5 of SARS-CoV Urbani / Binding of serum 37 to looped/cyclic peptides of protein X5 of SARS-CoV Urbani / Binding of serum 6 to linear peptides of protein N of SARS-CoV Urbani / Binding of serum 37 to linear peptides of protein N of SARS-CoV Urbani / Binding of serum 6 to linear peptide (PEPSCAN-ELISA) / Binding of serum 1a to looped/cyclic peptides of protein N of SARS-CoV Urbani / Binding of serum 1b to looped/cyclic peptides of protein N of SARS-CoV Urbani / Binding of serum 2 to looped/cyclic peptides of protein N of SARS-CoV Urbani / Binding of serum 6 to looped/cyclic peptides of protein N of SARS-CoV Urbani / Binding of serum 37 to looped/cyclic peptides of protein N of SARS-CoV Urbani / Binding of serum 62 to looped/cyclic peptides of protein N of SARS-CoV Urbani / Binding of serum London to looped/cyclic peptides of protein N of SARS-CoV Urbani / Binding of serum SARS-green to looped/cyclic peptides of protein N of SARS-CoV Urbani: unit not given here
[2] = system: control sera (pooled serum of ten healthy LUMC hospital workers; commercial negative donor pooled serum from the Dutch bloodbank); format: binding, human; parameters: Binding of Control serum LUMC to linear peptides / Binding of Control serum Blood-bank to linear peptides / Binding of Control serum LUMC to looped peptides / Binding of Control Serum Blood-Bank to Looped peptides / Binding of Control serum LUMC to linear peptides of the protein M of SARS-CoV Urbani / Binding of Control serum Blood-bank to linear peptides of the protein M of SARS-CoV Urbani / Binding of Control serum LUMC to looped peptides of the protein M of SARS-CoV Urbani / Binding of Control Serum Blood-Bank to Looped peptides of the protein M of SARS-CoV Urbani: unit not given here
[3] = system: rabbit serum obtained by immunizing a rabbit with the SARS-CoV strain Frankfurt 1; format: binding; parameters: Binding of a rabbit serum to linear peptides / Binding of a rabbit serum to looped peptides / Rabbit serum linear peptides / Rabbit serum looped peptides / Binding of a rabbit serum to linear peptides of protein N of SARS-CoV Urbani (Rabbit serum linear peptides) / Binding of a rabbit serum to looped/cyclic peptides of protein N of SARS-CoV Urbani (Rabbit serum looped peptides): unit not given here
[4] = system: recombinant human anti-SARS-CoV antibody 03-018; format: binding; parameters: Binding of antibody 03-018 to linear peptides of the N protein of SARS-CoV Urbani / Binding of antibody 03-018 to looped/cyclic peptides of the N protein of SARS-CoV Urbani: unit not given here

KEGIVWVATEGALNT
Binding of serum 1a to linear peptides of protein N of SARS-CoV Urbani [1]: 0.2 | Binding of serum 1a to looped/cyclic peptides of protein N of SARS-CoV Urbani [1]: 0.3 | Binding of serum 1b to linear peptides of protein N of SARS-CoV Urbani [1]: 0.1 | Binding of serum 1b to looped/cyclic peptides of protein N of SARS-CoV Urbani [1]: 0.2 | Binding of serum 2 to linear peptides of protein N of SARS-CoV Urbani [1]: 0.2 | Binding of serum 2 to looped/cyclic peptides of protein N of SARS-CoV Urbani [1]: 0.4 | Binding of serum 6 to linear peptides of protein N of SARS-CoV Urbani [1]: 0.2 | Binding of serum 6 to looped/cyclic peptides of protein N of SARS-CoV Urbani [1]: 0.2 | Binding of serum 37 to linear peptides of protein N of SARS-CoV Urbani [1]: 0.7 | Binding of serum 37 to looped/cyclic peptides of protein N of SARS-CoV Urbani [1]: 0.6 | Binding of serum 62 to linear peptides of protein N of SARS-CoV Urbani [1]: 0.6 | Binding of serum 62 to looped/cyclic peptides of protein N of SARS-CoV Urbani [1]: 0.5 | Binding of serum London to linear peptides of protein N of SARS-CoV Urbani [1]: 0.4 | Binding of serum London to looped/cyclic peptides of protein N of SARS-CoV Urbani [1]: 0.4 | Binding of serum SARS-green to linear peptides of protein N of SARS-CoV Urbani [1]: 0.5 | Binding of serum SARS-green to looped/cyclic peptides of protein N of SARS-CoV Urbani [1]: 0.3 | Binding of serum SARS-yellow to linear peptides of protein N of SARS-CoV Urbani [1]: 0.7 | Binding of serum SARS-yellow to looped/cyclic peptides of protein N of SARS-CoV Urbani [1]: 0.5 | Binding of Control Serum Blood-Bank to Looped peptides [2]: 0.6 | Binding of Control serum Blood-bank to linear peptides [2]: 0.7 | Binding of Control serum LUMC to linear peptides [2]: 0.6 | Binding of Control serum LUMC to looped peptides [2]: 0.7 | Binding of a rabbit serum to linear peptides of protein N of SARS-CoV Urbani (Rabbit serum linear peptides) [3]: 0.1 | Binding of a rabbit serum to looped/cyclic peptides of protein N of SARS-CoV Urbani (Rabbit serum looped peptides) [3]: 0.4 | Binding of antibody 03-018 to linear peptides of the N protein of SARS-CoV Urbani [4]: 0.1 | Binding of antibody 03-018 to looped/cyclic peptides of the N protein of SARS-CoV Urbani [4]: 0.2

KGQQQQGQTVTKKSA
Binding of serum 1a to linear peptide (PEPSCAN-ELISA) [1]: 0.3 | Binding of serum 1a to looped/cyclic peptides of protein N of SARS-CoV Urbani [1]: 0.2 | Binding of serum 1b to linear peptide (PEPSCAN-ELISA) [1]: 0.1 | Binding of serum 1b to looped/cyclic peptides of protein N of SARS-CoV Urbani [1]: 0.1 | Binding of serum 2 to linear peptide (PEPSCAN-ELISA) [1]: 0.2 | Binding of serum 2 to looped/cyclic peptides of protein N of SARS-CoV Urbani [1]: 0.2 | Binding of serum 6 to linear peptide (PEPSCAN-ELISA) [1]: 0.3 | Binding of serum 6 to looped/cyclic peptides of protein N of SARS-CoV Urbani [1]: 0.1 | Binding of serum 37 to linear peptide (PEPSCAN-ELISA) [1]: 0.7 | Binding of serum 37 to looped/cyclic peptides of protein N of SARS-CoV Urbani [1]: 0.4 | Binding of serum 62 to linear peptide (PEPSCAN-ELISA) [1]: 0.8 | Binding of serum 62 to looped/cyclic peptides of protein N of SARS-CoV Urbani [1]: 0.3 | Binding of serum London to linear peptide (PEPSCAN-ELISA) [1]: 0.6 | Binding of serum London to looped/cyclic peptides of protein N of SARS-CoV Urbani [1]: 0.3 | Binding of serum SARS-green to linear peptide (PEPSCAN-ELISA) [1]: 0.4 | Binding of serum SARS-green to looped/cyclic peptides of protein N of SARS-CoV Urbani [1]: 0.0 | Binding of serum SARS-yellow to linear peptide (PEPSCAN-ELISA) [1]: 0.6 | Binding of serum SARS-yellow to looped/cyclic peptides of protein N of SARS-CoV Urbani [1]: 0.1 | Binding of Control Serum Blood-Bank to Looped peptides [2]: 0.4 | Binding of Control serum Blood-bank to linear peptides [2]: 1.0 | Binding of Control serum LUMC to linear peptides [2]: 0.9 | Binding of Control serum LUMC to looped peptides [2]: 0.4 | Binding of a rabbit serum to linear peptides of protein N of SARS-CoV Urbani (Rabbit serum linear peptides) [3]: 0.2 | Binding of a rabbit serum to looped/cyclic peptides of protein N of SARS-CoV Urbani (Rabbit serum looped peptides) [3]: 0.0 | Binding of antibody 03-018 to linear peptides of the N protein of SARS-CoV Urbani [4]: 0.1 | Binding of antibody 03-018 to looped/cyclic peptides of the N protein of SARS-CoV Urbani [4]: 0.2

KHWPQIAQFAPSASA
Binding of serum 1a to linear peptides of protein N of SARS-CoV Urbani [1]: 0.3 | Binding of serum 1a to looped/cyclic peptides of protein N of SARS-CoV Urbani [1]: 0.3 | Binding of serum 1b to linear peptides of protein N of SARS-CoV Urbani [1]: 0.1 | Binding of serum 1b to looped/cyclic peptides of protein N of SARS-CoV Urbani [1]: 0.1 | Binding of serum 2 to linear peptides of protein N of SARS-CoV Urbani [1]: 0.3 | Binding of serum 2 to looped/cyclic peptides of protein N of SARS-CoV Urbani [1]: 0.3 | Binding of serum 6 to linear peptides of protein N of SARS-CoV Urbani [1]: 0.2 | Binding of serum 6 to looped/cyclic peptides of protein N of SARS-CoV Urbani [1]: 0.3 | Binding of serum 37 to linear peptides of protein N of SARS-CoV Urbani [1]: 0.8 | Binding of serum 37 to looped/cyclic peptides of protein N of SARS-CoV Urbani [1]: 0.2 | Binding of serum 62 to linear peptides of protein N of SARS-CoV Urbani [1]: 0.7 | Binding of serum 62 to looped/cyclic peptides of protein N of SARS-CoV Urbani [1]: 0.4 | Binding of serum London to linear peptides of protein N of SARS-CoV Urbani [1]: 0.7 | Binding of serum London to looped/cyclic peptides of protein N of SARS-CoV Urbani [1]: 0.5 | Binding of serum SARS-green to linear peptides of protein N of SARS-CoV Urbani [1]: 0.6 | Binding of serum SARS-green to looped/cyclic peptides of protein N of SARS-CoV Urbani [1]: 0.4 | Binding of serum SARS-yellow to linear peptides of protein N of SARS-CoV Urbani [1]: 0.8 | Binding of serum SARS-yellow to looped/cyclic peptides of protein N of SARS-CoV Urbani [1]: 0.2 | Control Serum Blood-Bank Looped peptides [2]: 0.7 | Control serum Blood-bank linear peptides [2]: 0.8 | Control serum LUMC linear peptides [2]: 0.7 | Control serum LUMC looped peptides [2]: 0.6 | Binding of a rabbit serum to linear peptides of protein N of SARS-CoV Urbani (Rabbit serum linear peptides) [3]: 0.2 | Binding of a rabbit serum to looped/cyclic peptides of protein N of SARS-CoV Urbani (Rabbit serum looped peptides) [3]: 0.0 | Binding of antibody 03-018 to linear peptides of the N protein of SARS-CoV Urbani [4]: 0.1 | Binding of antibody 03-018 to looped/cyclic peptides of the N protein of SARS-CoV Urbani [4]: 0.2
